Assay results reported in US20260165323A1, “USE OF STROBILURIN TYPE COMPOUNDS FOR COMBATING PHYTOPATHOGENIC FUNGI CONTAINING AN AMINO ACID SUBSTITUTION F129L IN THE MITOCHONDRIAL CYTOCHROME B PROTEIN CONFERRING RESISTANCE TO QO […]” (priority 2022, published 2026).

Tests used:
Assay type in all cases: in vivo
[1] = tested on: Phakopsora pachyrhizi containing the amino acid substitution F129L in the mitochondrial cytochrome b protein; test: Use Example 1: protective control of soybean rust on soybeans (PHAKPA P2); details: inoculated 2 days after spraying, % diseased leaf area
In short: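 Protective test: plants were inoculated with the F129L cytochrome b rust strain 2 days after spraying to run-off, then held 24 h humid (~95% RH, 20-24° C) and up to 14 days at 23-27° C, 60-80% RH. Readout was visually assessed percent diseased leaf area.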

[2] = tested on: Phakopsora pachyrhizi containing the amino acid substitution F129L in the mitochondrial cytochrome b protein; test: Use Example 2: protective control of soybean rust on soybeans (PHAKPA P6); details: inoculated six days after spraying, % diseased leaf area
In short: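 Disease was rated visually as % diseased leaf area up to 14 days after inoculation (23–27°C, 60–80% RH). Inoculum was P. pachyrhizi carrying cytochrome b F129L, followed by 24 h in a humid chamber (~95% RH). Inoculation came six days after protective spraying of seedlings with compound in acetone/DMSO–Wettol–water.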

Puccinia recondita [3] = test: Use Example 3: curative control of brown rust on wheat (PUCCRT K4); details: % diseased leaf area
Method: The compound was dissolved in a mixture of acetone and/or dimethylsulfoxide and the wetting agent/emulsifier Wettol, which is based on ethoxylated alkylphenoles, in a ratio (volume) solvent-emulsifier of 99 to 1 to give a total volume of 5 ml. Subsequently, water was added to total volume of 100 ml. This stock solution was then diluted with the described solvent-emulsifier-water mixture to the final concentration given in the tables below.
Use Example 3. Curative Control of Brown Rust on Wheat Caused by Puccinia recondita (PUCCRT K4)
The first two developed leaves of potted wheat seedling were dusted with spores of Puccinia recondita. To ensure the success the artificial inoculation, the plants were transferred to a humid chamber without light and a relative humidity of 95 to 99% and 20 to 24° C. for 24 h. The next 3 days the plants were cultivated in a greenhouse chamber at 20 to 24° C. and a relative humidity between 65 and 70%. Then the plants were sprayed to run-off with previously described spray solution, containing the concentration of active ingredient or their mixture as described below. The plants were allowed to air-dry. Then the trial plants were cultivated for 5 to 7 days in a greenhouse chamber at 20 to 24° C. and a relative humidity between 65 and 70%. The extent of fungal attack on the leaves was visually assessed as % diseased leaf area, the disease level of untreated controls was usually between 80 and 100%.

Puccinia recondita [4] = test: Use Example 4: preventative control of brown rust on wheat (PUCCRT P7); details: inoculated seven days after spraying, % diseased leaf area
In short: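 Preventative test: Puccinia recondita spores dusted onto wheat seedlings seven days after spraying their first two leaves to run-off with the formulated compound. After 24 h humid dark incubation at 20–24 °C and 9–11 days of greenhouse growth at 65–70% RH, infection rated visually as % diseased leaf area.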

SMILES | % PHAKPA (F129L) Disease level P2 at 4 ppm [1] | % PHAKPA (F129L) Disease level P2 at 16 ppm [1] | % PHAKPA (F129L) Disease level P6 at 4 ppm [2] | % PHAKPA (F129L) Disease level P6 at 16 ppm [2] | % PUCCRT Disease level K4 at 4 ppm (Puccinia recondita [3]) | % PUCCRT Disease level K4 at 16 ppm (Puccinia recondita [3]) | % PUCCRT Disease level P7 at 4 ppm (Puccinia recondita [4]) | % PUCCRT Disease level P7 at 16 ppm (Puccinia recondita [4])
CNC(=O)/C(=N/OC)c1cccc(Cl)c1CO/N=C(\COC)c1cc(F)c(F)c(F)c1 [compound 74] | 12% | 2% | 1% | 0% | 37% | 3% | 12% | 3%
CNC(=O)/C(=N/OC)c1cccc(Cl)c1CO/N=C(\COC)c1cccc(Cl)c1 [compound 43] | 6% | 0% | 20% | 2% | 72% | 10% | 10% | 3%
CCOC/C(=N\OCc1c(Cl)cccc1/C(=N\OC)C(=O)NC)c1ccccc1 [compound 55] | 37% | 1% | 40% | 9% | 77% | 47% | 53% | 29%
CO/C=C(/C(=O)OC)c1cccc(Cl)c1CO/N=C(\COC)c1ccc(F)c(F)c1F [compound 101] | 2% | 0% | 6% | 0% | 35% | 3% | 54% | 3%
CNC(=O)/C(=N/OC)c1cccc(Cl)c1CO/N=C(\COC)c1cccc(Cl)c1F [compound 99] | 21% | 1% | 17% | 2% | 82% | 10% | 42% | 7%
CO/C=C(/C(=O)OC)c1cccc(Cl)c1CO/N=C(\COC)c1cccc(Cl)c1 [compound 39] | 2% | 0% | 10% | 1% | 9% | 1% | 3% | 0%
CO/C=C(/C(=O)OC)c1cccc(Cl)c1CO/N=C(\COC)c1ccccn1 [compound 129, Methyl (E)-2-[3-chloro-2-[[(Z)-[2-methoxy-1-(2-pyridyl)ethylidene]amino]oxymethyl]phenyl]-3-methoxy-prop-2-enoate] | 1% | 0% | 4% | 1% | 11% | 1% | – | 18%
CO/C=C(/C(=O)OC)c1cccc(Cl)c1CO/N=C(\COC)c1ccc(F)cn1 [compound 131, Methyl (E)-2-[3-chloro-2-[[(Z)-[1-(5-fluoro-2-pyridyl)-2-methoxy-ethylidene]amino]oxymethyl]phenyl]-3-methoxy-prop-2-enoate] | 1% | 0% | 1% | 0% | 2% | 0% | 32% | 1%
CO/C=C(/C(=O)OC)c1cccc(Cl)c1CO/N=C(\COC)c1ccc(Cl)c(F)c1 [compound 110] | 1% | 0% | 15% | 0% | 70% | 4% | 41% | 3%
CO/C=C(/C(=O)OC)c1cccc(Cl)c1CO/N=C(\COC)c1c(F)ccc(F)c1F [compound 113] | 1% | 0% | 10% | 1% | 77% | 13% | 70% | 10%
CNC(=O)/C(=N/OC)c1cccc(Cl)c1CO/N=C(\COC)c1ccccc1F [compound 21] | 7% | 0% | 16% | 1% | 63% | 28% | 33% | 6%
CCOC/C(=N\OCc1c(Cl)cccc1/C(=C\OC)C(=O)OC)c1cccc(Cl)c1 [compound 38] | 23% | 3% | 50% | 6% | 50% | 8% | 20% | 2%
CCOCC(=NOCc1c(Cl)cccc1C(=COC)C(=O)OC)c1ccccc1 [compound 54] | 21% | 1% | 20% | 3% | 77% | 30% | 75% | 27%
CCOC/C(=N\OCc1c(Cl)cccc1/C(=N\OC)C(=O)OC)c1ccccc1F [compound 20] | 60% | 43% | 63% | 63% | 80% | 77% | 70% | 57%
CCOC/C(=N\OCc1c(Cl)cccc1/C(=N\OC)C(=O)NC)c1ccc(F)cc1 [compound 48] | 80% | 7% | 80% | 17% | 77% | 50% | 63% | 17%
